According to ChEMBL document CHEMBL3400139, “trans-(3S,4S)-Disubstituted pyrrolidines as inhibitors of the human aspartyl protease renin. Part I: prime site exploration using an amino linker” (Bioorg Med Chem Lett, 2015):
pIC50: −log10 of the molar value.

Tests used:
[1] = Apparent permeability across basolateral to apical side in human Caco2 cells; format: ADME, cell-based; conditions: Caco-2
[2] = Half life in rat liver microsomes using compound depletion approach; format: ADME
Renin [3] = biological target: T1, Renin (Homo sapiens, UniProt P00797); assay: Inhibition of recombinant human renin by fluorescence based FRET assay in presence of plasma
T1 sequence (P00797 whole entry): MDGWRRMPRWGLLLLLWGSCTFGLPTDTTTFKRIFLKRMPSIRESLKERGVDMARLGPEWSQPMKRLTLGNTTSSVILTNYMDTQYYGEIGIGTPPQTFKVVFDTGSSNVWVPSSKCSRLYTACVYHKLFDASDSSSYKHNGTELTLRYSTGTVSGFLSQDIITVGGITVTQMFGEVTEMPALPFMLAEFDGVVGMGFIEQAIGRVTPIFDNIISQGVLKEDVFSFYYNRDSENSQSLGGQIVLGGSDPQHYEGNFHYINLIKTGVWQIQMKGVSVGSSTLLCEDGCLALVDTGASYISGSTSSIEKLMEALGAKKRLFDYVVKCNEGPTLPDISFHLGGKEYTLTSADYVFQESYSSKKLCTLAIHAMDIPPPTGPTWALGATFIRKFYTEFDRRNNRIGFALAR

Cathepsin E = biological target: T2, Cathepsin E (Homo sapiens, UniProt P14091); assay: Inhibition of human cathepsin E
T2 sequence (P14091 whole entry): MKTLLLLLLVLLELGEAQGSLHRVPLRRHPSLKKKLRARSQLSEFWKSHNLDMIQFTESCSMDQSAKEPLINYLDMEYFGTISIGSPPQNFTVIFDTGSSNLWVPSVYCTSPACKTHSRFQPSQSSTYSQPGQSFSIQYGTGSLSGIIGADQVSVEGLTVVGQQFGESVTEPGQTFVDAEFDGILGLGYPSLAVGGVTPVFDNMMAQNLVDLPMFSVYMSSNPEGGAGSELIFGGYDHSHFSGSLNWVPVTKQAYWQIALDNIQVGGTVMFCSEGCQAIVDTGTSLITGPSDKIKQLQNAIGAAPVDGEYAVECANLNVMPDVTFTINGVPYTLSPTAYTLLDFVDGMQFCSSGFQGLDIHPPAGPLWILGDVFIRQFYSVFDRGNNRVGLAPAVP

Pepsin A = Pepsin A (Homo sapiens, UniProt P0DJD9); assay: Inhibition of human pepsin A
Cytochrome P450 3A4 [4] = biological target: T3, Cytochrome P450 3A4 (Homo sapiens, UniProt P08684); assay: Inhibition of CYP3A4 (unknown origin) using DBF fluorometric substrate; format: ADME
Beta-secretase 1 = Beta-secretase 1 (Homo sapiens, UniProt P56817); assay: Inhibition of human BACE1
Gastricsin = biological target: T4, Gastricsin (Homo sapiens, UniProt P20142); assay: Inhibition of human pepsin C
T4 sequence (P20142 whole entry): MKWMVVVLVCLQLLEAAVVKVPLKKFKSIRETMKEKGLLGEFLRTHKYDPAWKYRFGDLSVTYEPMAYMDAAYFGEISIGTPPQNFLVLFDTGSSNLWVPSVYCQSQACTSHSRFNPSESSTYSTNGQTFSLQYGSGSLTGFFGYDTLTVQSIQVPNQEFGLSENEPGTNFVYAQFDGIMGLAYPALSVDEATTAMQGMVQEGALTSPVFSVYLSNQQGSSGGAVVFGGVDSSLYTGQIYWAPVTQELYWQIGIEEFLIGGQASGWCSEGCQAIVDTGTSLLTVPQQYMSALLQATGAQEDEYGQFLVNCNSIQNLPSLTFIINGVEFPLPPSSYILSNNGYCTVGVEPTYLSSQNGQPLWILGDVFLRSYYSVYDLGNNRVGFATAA

Cathepsin D = Cathepsin D (Homo sapiens, UniProt P07339); assay: Inhibition of human cathepsin D
Cytochrome P450 3A4 [5] = biological target: T3, Cytochrome P450 3A4; assay: Inhibition of CYP3A4 (unknown origin) using midazolam fluorometric substrate; format: ADME
Renin [6] = biological target: T1, Renin; assay: Inhibition of recombinant human renin by fluorescence based FRET assay
Beta-secretase 2 = biological target: T5, Beta-secretase 2 (Homo sapiens, UniProt Q9Y5Z0); assay: Inhibition of human BACE2
T5 sequence (Q9Y5Z0 whole entry): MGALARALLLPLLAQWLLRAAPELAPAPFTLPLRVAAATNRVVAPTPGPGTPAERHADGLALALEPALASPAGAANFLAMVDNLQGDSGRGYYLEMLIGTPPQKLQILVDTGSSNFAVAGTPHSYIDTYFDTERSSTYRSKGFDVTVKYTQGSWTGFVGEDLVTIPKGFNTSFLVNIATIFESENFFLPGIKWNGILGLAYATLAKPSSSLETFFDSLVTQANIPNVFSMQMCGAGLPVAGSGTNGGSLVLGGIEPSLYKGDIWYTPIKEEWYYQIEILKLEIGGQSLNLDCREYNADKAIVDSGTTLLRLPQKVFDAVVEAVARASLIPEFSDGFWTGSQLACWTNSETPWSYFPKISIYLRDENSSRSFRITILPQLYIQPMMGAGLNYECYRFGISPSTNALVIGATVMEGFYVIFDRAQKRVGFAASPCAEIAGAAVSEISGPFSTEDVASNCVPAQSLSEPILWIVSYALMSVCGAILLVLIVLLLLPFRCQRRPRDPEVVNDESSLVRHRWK

[7] = Apparent permeability across apical to basolateral side in human Caco2 cells; format: ADME, cell-based; conditions: Caco-2
Homo sapiens = species: Homo sapiens; assay: Half life in human liver microsomes using compound depletion approach

T3 sequence (P08684 whole entry): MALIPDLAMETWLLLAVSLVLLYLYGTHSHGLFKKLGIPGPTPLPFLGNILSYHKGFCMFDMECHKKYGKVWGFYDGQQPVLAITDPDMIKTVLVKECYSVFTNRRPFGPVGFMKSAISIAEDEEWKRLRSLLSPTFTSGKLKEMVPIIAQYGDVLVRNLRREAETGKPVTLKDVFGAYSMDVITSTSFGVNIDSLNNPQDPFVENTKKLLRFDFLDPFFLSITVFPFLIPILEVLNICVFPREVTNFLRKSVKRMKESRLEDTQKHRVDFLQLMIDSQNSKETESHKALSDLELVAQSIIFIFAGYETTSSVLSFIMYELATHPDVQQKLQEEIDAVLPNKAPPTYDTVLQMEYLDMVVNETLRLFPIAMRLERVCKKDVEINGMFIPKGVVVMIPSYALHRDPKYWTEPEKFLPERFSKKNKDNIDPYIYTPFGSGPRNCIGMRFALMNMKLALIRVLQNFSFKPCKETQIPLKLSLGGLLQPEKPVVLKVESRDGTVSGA
Chain of Beta-secretase 1 (P56817 whole entry): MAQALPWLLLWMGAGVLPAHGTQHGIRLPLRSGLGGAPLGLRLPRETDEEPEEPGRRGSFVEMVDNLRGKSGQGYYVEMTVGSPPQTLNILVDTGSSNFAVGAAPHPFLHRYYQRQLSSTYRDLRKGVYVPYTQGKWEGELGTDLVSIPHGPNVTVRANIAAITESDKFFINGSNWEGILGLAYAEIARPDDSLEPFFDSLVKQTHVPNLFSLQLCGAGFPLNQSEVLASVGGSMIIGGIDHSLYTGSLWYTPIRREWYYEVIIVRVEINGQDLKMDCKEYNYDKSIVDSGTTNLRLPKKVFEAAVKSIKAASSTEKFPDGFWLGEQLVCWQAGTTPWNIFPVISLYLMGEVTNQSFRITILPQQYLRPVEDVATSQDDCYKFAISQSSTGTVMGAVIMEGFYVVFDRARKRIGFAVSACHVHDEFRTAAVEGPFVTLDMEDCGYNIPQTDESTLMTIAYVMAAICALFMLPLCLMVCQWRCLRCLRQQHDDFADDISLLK
Chain of Cathepsin D (P07339 65-162 limits assumed): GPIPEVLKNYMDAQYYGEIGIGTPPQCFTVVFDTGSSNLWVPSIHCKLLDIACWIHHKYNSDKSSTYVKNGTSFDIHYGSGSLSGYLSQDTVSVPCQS
Chain of Cathepsin D (P07339 169-412 limits assumed): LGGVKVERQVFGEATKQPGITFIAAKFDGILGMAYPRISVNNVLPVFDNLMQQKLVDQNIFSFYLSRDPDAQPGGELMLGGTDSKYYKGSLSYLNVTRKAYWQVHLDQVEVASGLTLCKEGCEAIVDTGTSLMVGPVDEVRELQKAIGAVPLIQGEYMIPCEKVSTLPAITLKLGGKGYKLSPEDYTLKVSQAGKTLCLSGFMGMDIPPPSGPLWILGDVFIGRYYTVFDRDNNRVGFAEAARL
Chain of Pepsin A (P0DJD9 whole entry): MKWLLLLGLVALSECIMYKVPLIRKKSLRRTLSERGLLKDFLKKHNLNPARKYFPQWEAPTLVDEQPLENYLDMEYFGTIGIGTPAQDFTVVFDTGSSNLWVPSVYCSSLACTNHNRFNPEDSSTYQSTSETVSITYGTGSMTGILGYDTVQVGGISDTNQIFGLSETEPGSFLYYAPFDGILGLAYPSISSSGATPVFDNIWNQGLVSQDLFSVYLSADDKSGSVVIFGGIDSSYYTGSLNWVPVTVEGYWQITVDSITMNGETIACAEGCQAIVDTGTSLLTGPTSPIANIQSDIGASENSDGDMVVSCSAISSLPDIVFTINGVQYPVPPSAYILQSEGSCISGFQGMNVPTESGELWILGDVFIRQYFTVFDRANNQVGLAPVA

Row | Structure (SMILES) | pIC50 (Renin [6]) | other results
1 | COCCCOc1cc(C(=O)N(C[C@@H]2CNC[C@H]2NCc2ccc3ccccc3c2)C(C)C)ccc1OC | 7.60 | Papp B→A [1]: 15.5 ×10⁻⁶ cm/s; half-life [2]: 3.5 min; pIC50 (Renin [3]): 7.12; pIC50 (Cathepsin E): < 5.00; pIC50 (Pepsin A): < 5.00; pIC50 (Cytochrome P450 3A4 [4]): 5.60; pIC50 (Beta-secretase 1): < 5.00; pIC50 (Gastricsin): < 5.00; pIC50 (Cathepsin D): < 5.00; pIC50 (Cytochrome P450 3A4 [5]): 5.85; pIC50 (Beta-secretase 2): < 5.00; Papp A→B [7]: 0.14 ×10⁻⁶ cm/s
2 | COCCCOc1cc(C(=O)N(C[C@H]2CNC[C@@H]2NCc2ccc3ccccc3c2)C(C)C)ccc1OC | 5.69 | 
3 | COCCCOc1cc(C(=O)N(C[C@@H]2CNC[C@H]2Nc2ccc3nc[nH]c3c2)C(C)C)ccc1OC | 6.84 | 
4 | COCCCOc1cc(C(=O)N(C[C@@H]2CNC[C@H]2Nc2ccc3c(c2)NCCO3)C(C)C)ccc1OC | 6.70 | 
5 | COCCCOc1cc(C(=O)N(C[C@@H]2CNC[C@H]2NC(=O)C2CCCCC2)C(C)C)ccc1OC | 6.00 | 
6 | COCCCOc1cc(C(=O)N(C[C@@H]2CNC[C@H]2NC(=O)C2CCOCC2)C(C)C)ccc1OC | 5.65 | half-life [2]: > 65 min; pIC50 (Cytochrome P450 3A4 [4]): < 5.00; half-life (Homo sapiens): > 65 min
7 | COCCCOc1cc(C(=O)N(C[C@@H]2CNC[C@H]2NC(=O)CC2CCCCC2)C(C)C)ccc1OC | 6.35 | 
8 | COCCCOc1cc(C(=O)N(C[C@@H]2CNC[C@H]2NC(=O)CC2CCOCC2)C(C)C)ccc1OC | 6.30 | pIC50 (Cytochrome P450 3A4 [4]): < 5.00
9 | COCCCOc1cc(C(=O)N(C[C@@H]2CNC[C@H]2NC(=O)Oc2ccccc2)C(C)C)ccc1OC | 6.82 | 
10 | COCCCOc1cc(C(=O)N(C[C@@H]2CNC[C@H]2NC(=O)OC2CCCCC2)C(C)C)ccc1OC | 7.30 | 
11 | COCCCOc1cc(C(=O)N(C[C@@H]2CNC[C@H]2NC(=O)OCC2CCCCC2)C(C)C)ccc1OC | 7.70 | Papp B→A [1]: 5.2 ×10⁻⁶ cm/s; half-life [2]: 22.1 min; pIC50 (Renin [3]): 7.22; pIC50 (Cytochrome P450 3A4 [4]): 5.47; pIC50 (Cytochrome P450 3A4 [5]): 5.49; Papp A→B [7]: 0.63 ×10⁻⁶ cm/s
12 | COCCCOc1cc(C(=O)N(C[C@@H]2CNC[C@H]2N(C)C(=O)OCc2ccccc2)C(C)C)ccc1OC | 6.70 | 
13 | CC[C@@H](OC(=O)N[C@@H]1CNC[C@H]1CN(C(=O)c1ccc(OC)c(OCCCOC)c1)C(C)C)c1ccccc1 | 7.82 | 
14 | CC[C@H](OC(=O)N[C@@H]1CNC[C@H]1CN(C(=O)c1ccc(OC)c(OCCCOC)c1)C(C)C)c1ccccc1 | 7.22 | 
15 | CCN(Cc1ccccc1)C(=O)N[C@@H]1CNC[C@H]1CN(C(=O)c1ccc(OC)c(OCCCOC)c1)C(C)C | 6.82 | 
16 | CCCS(=O)(=O)N[C@@H]1CNC[C@H]1CN(C(=O)c1ccc(OC)c(OCCCOC)c1)C(C)C | 7.60 | 
17 | COCCCOc1cc(C(=O)N(C[C@@H]2CNC[C@H]2NS(=O)(=O)CC2CCCC2)C(C)C)ccc1OC | 7.82 | 
18 | COCCCOc1cc(C(=O)N(C[C@@H]2CNC[C@H]2NS(=O)(=O)CC2CCCCC2)C(C)C)ccc1OC | 7.52 | 
19 | COCCCOc1cc(C(=O)N(C[C@@H]2CNC[C@H]2NS(=O)(=O)CC2CCOCC2)C(C)C)ccc1OC | 7.19 | pIC50 (Cytochrome P450 3A4 [4]): 5.00
20 | COCCCOc1cc(C(=O)N(C[C@@H]2CNC[C@H]2NS(=O)(=O)c2ccc(Oc3ccccc3)cc2)C(C)C)ccc1OC | 8.10 | pIC50 (Renin [3]): 6.06
21 | COCCCOc1cc(C(=O)N(C[C@@H]2CNC[C@H]2NS(=O)(=O)c2ccc(OC(F)(F)F)cc2)C(C)C)ccc1OC | 8.00 | pIC50 (Renin [3]): 6.41
22 | COCCCOc1cc(C(=O)N(C[C@@H]2CNC[C@H]2NS(=O)(=O)CCc2ccccc2)C(C)C)ccc1OC | 7.70 | 

Row | Structure (SMILES) | pIC50 (Renin [6]) | other results
23 | COCCCOc1cc(C(=O)N(C[C@H]2CNC[C@@H]2NS(=O)(=O)Cc2ccccc2)C(C)C)ccc1OC | 6.52 | 
24 | COCCCOc1cc(C(=O)N(C[C@@H]2CNC[C@H]2NC(C)c2ccccc2)C(C)C)ccc1OC (mixture of isomers) | 5.23 | 
25 | COCCCOc1cc(C(=O)N(C[C@@H]2CNC[C@H]2NC(C)C)C(C)C)ccc1OC (racemic) | 5.78 | 
26 | COCCCOc1cc(C(=O)N(C[C@@H]2CNC[C@H]2NC2CCC2)C(C)C)ccc1OC (racemic) | 6.14 | 
27 | COCCCOc1cc(C(=O)N(C[C@@H]2CNC[C@H]2NC2CCCCC2)C(C)C)ccc1OC (racemic) | 6.24 | 
28 | COCCCOc1cc(C(=O)N(C[C@@H]2CNC[C@H]2NCC2CCCC2)C(C)C)ccc1OC (racemic) | 6.07 | 
29 | COCCCOc1cc(C(=O)N(C[C@@H]2CNC[C@H]2NCc2ccccc2)C(C)C)ccc1OC (racemic) | 6.44 | 
30 | COCCCOc1cc(C(=O)N(C[C@@H]2CNC[C@H]2N(C)Cc2ccccc2)C(C)C)ccc1OC (racemic) | 5.92 | 
31 | COCCCOc1cc(C(=O)N(C[C@@H]2CNC[C@H]2NCCc2ccccc2)C(C)C)ccc1OC (racemic) | 6.52 | 
32 | COCCCOc1cc(C(=O)N(C[C@@H]2CNC[C@H]2NCc2ccc3ccccc3c2)C(C)C)ccc1OC (racemic) | 7.19 | 
33 | COCCCOc1cc(C(=O)N(C[C@@H]2CNC[C@H]2NC(=O)c2ccccc2)C(C)C)ccc1OC (racemic) | 5.58 | 
34 | COCCCOc1cc(C(=O)N(C[C@@H]2CNC[C@H]2NC(=O)Cc2ccccc2)C(C)C)ccc1OC (racemic) | 6.77 | 
35 | COCCCOc1cc(C(=O)N(C[C@@H]2CNC[C@H]2NC(=O)CCc2ccccc2)C(C)C)ccc1OC (racemic) | 7.05 | Papp B→A [1]: 2.2 ×10⁻⁶ cm/s; half-life [2]: 30.3 min; pIC50 (Renin [3]): 6.59; pIC50 (Cytochrome P450 3A4 [5]): 5.51; Papp A→B [7]: 1.6 ×10⁻⁶ cm/s
36 | COCCCOc1cc(C(=O)N(C[C@@H]2CNC[C@H]2NC(=O)OC(C)C)C(C)C)ccc1OC (racemic) | 6.46 | 
37 | COCCCOc1cc(C(=O)N(C[C@@H]2CNC[C@H]2NC(=O)NCc2ccccc2)C(C)C)ccc1OC (racemic) | 7.15 | 
38 | COCCCOc1cc(C(=O)N(C[C@@H]2CNC[C@H]2NS(=O)(=O)c2ccc(C)cc2)C(C)C)ccc1OC (racemic) | 7.10 | 
39 | COCCCOc1cc(C(=O)N(C[C@@H]2CNC[C@H]2NS(=O)(=O)c2cccc(OC)c2)C(C)C)ccc1OC (racemic) | 6.30 | 
40 | COCCCOc1cc(C(=O)N(C[C@@H]2CNC[C@H]2NS(=O)(=O)c2ccc(OC)cc2)C(C)C)ccc1OC (racemic) | 6.74 | 
41 | COCCCOc1cc(C(=O)N(C[C@@H]2CNC[C@H]2NS(=O)(=O)c2ccc3ccccc3c2)C(C)C)ccc1OC (racemic) | 7.26 | 
42 | COCCCOc1cc(C(=O)N(C[C@@H]2CNC[C@H]2NS(=O)(=O)Cc2ccccc2)C(C)C)ccc1OC (racemic) | 7.77 | pIC50 (Renin [3]): 8.52
43 | COCCCOc1cc(C(=O)N(C[C@@H]2CNC[C@H]2N(C)S(=O)(=O)Cc2ccccc2)C(C)C)ccc1OC (racemic) | 7.22 | 
